The values that follow come from publication PMC7997369, “Assessment of the Multifunctional Behavior of Lupin Peptide P7 and Its Metabolite Using an Integrated Strategy” (Journal of Agricultural and Food Chemistry, 2020).

The test system of one data set is ACE. The note with it: cited from earlier work; for in vitro ACE inhibitory activity at 0.5 mg/mL: hempseed hydrolysate peptides. How it is done: (§1) Moreover, when orally administered to spontaneously hypertensive rats (SHRs) at a dose of 30 mg/kg of body weight, LTFPG produces a fast and efficient decrease in systolic blood pressure with a maximum of −37 mmHg after 2 h. […] In particular, these phenomena have been invocated to explain the discrepancy observed between in vitro assays and in vivo results. For example, there are many reports in the literature on the ACE inhibitory activity of different food-derived peptides.[32] In all of these studies, the biochemical characterization is carried out using tests on the purified recombinant ACE enzymes from lung ...

Data set [1] deals with spontaneously hypertensive rats (SHRs). The note with it: cited from earlier work. How it is done:
as §1

The test system of data set [2] is differentiated Caco-2 cell monolayers. In words: Transepithelial transport and metabolism across differentiated Caco-2 cell monolayers. The data set is classed as in vitro ADME, human. Particulars: AP solutions of differentiated Caco-2 collected after 120 min; untargeted HPLC–Chip–MS/MS; × = detected. How it is done: For differentiation, Caco-2 cells were seeded on polycarbonate filters with a 12 mm diameter and 0.4 μm pore diameter (Transwell, Corning, Inc., Lowell, MA, U.S.A.) at a 3.5 × 10^5 cells/cm^2 density in complete medium supplemented with 10% FBS in both AP and BL compartments for 2 days to allow for the formation of a confluent cell monolayer. Starting from day 3 after seeding, cells were transferred to FBS-free medium in both compartments, supplemented with ITS [final concentration of 10 mg/L insulin (I), 5.5 mg/L transferrin (T), and 6.7 μg/L sodium selenite (S), GIBCO–Invitrogen, San Giuliano Milanese, Italy] only in the BL compartment, and allowed to differentiate for 18–21 days with regular medium changes 3 times weekly.[12]
The transepithelial electrical resistance (TEER) of differentiated Caco-2 cells was measured at 37 °C using the voltmeter apparatus Millicell (Millipore Co., Billerica, MA, U.S.A.), immediately before and at the end of the transport experiments. In addition, at the end of transport experiments, cells were incubated from the AP side with 1 mM phenol red in phosphate-buffered saline (PBS) containing Ca^2+ (0.9 mM) and Mg^2+ (0.5 mM) for 1 h at 37 °C, to monitor the paracellular permeability of the cell monolayer. The BL solutions were then collected, and NaOH (70 μL, 0.1 N) was added before reading the absorbance at 560 nm by a microplate reader Synergy H1 from Biotek (Winooski, VT, U.S.A.). Phenol red passage was quantified using a standard phenol red curve. Only filters showing TEER values and phenol red passages similar to untreated control cells were considered for peptide transport analysis.
Prior to experiments, the cell monolayer integrity and differentiation were checked by TEER measurement as described in detail above. Cells were then washed twice, and peptide transportation by intestinal cells was assayed. Transport experiments were performed in transport buffer solution (137 mM NaCl, 5.36 mM KCl, 1.26 mM CaCl2, 1.1 mM MgCl2, and 5.5 mM glucose) following conditions previously described.[13] To reproduce the pH conditions existing in vivo in the small intestinal mucosa, AP solutions were maintained at pH 6.0 (buffered with 10 mM morpholinoethanesulfonic acid) and BL solutions were maintained at pH 7.4 (buffered with 10 mM N-2-hydroxyethylpiperazine-N-4-[…]). Prior to transport experiments, cells were washed twice with 500 μL of PBS containing Ca^2+ and Mg^2+. Peptide transportation by mature Caco-2 cells was assayed by loading the AP compartment with P7 and/or LTFPG (500 μM) in the AP transport solution (500 μL) and the BL compartment with the BL transport solution (700 μL). The plates were incubated at 37 °C, and the BL solutions were collected at different time points (i.e., 15, 30, 60, 90, and 120 min) and replaced with fresh solutions prewarmed at 37 °C. All BL solutions together with the AP solutions collected at the end of the transport experiment were stored at −80 °C prior to analysis. Three independent transport experiments were performed, each in duplicate.
Quantitative analysis of P7 in the AP and BL samples were carried out by ion trap mass spectrometry (MS) in multiple reaction monitoring (MRM) mode, monitoring two of the most intense diagnostic transitions, after optimization of the acquisition parameters, such as retention time, MS profile, and tandem mass spectrometry (MS/MS) fragmentation spectrum.[14],[15] All further details regarding liquid chromatography–tandem mass spectrometry (LC–MS/MS) operating conditions and method validations are described in the Supporting Information.
The metabolic degradation products deriving from the hydrolytic activity of brush border membrane peptidases were investigated by an untargeted approach (for further details, see the Supporting Information). […]

Turning to “FKGRYYP [peptide from meat-derived hydrolysates obtained using thermolysin]”, in the data set on ACE (peptides from meat-derived thermolysin hydrolysates, read-out: IC50, in vitro ACE activity), the IC50 is 550 nM. Moreover, the “effect in vivo on SHRs” value in data set [1] was “totally ineffective”. With IPAGV, the “in vitro ACE inhibitory activity at 0.5 mg/mL” value in the data set on ACE is 60.0%. Moreover, the “reduction of the BP of SHR” value in data set [1] is listed as −40.0 mmHg. Consider SVYT, for which the “in vitro ACE inhibitory activity at 0.5 mg/mL” value in the data set with ACE is reported as 79.0%. As to “TFPGSAED [AP metabolite of P7 produced by Caco-2 cells, attributed to leucine aminopeptidase]”, the “detected at the AP side, P7 tested within a mixture” value in data set [2] is “×”.
